Data on seven molecules can be found in PubChem BioAssay (NCI).

Among the test systems are SR leukemia; MCF7 breast; A549 NSCLC; SK-MEL-28 melanoma; SN12C renal; 786-0 renal; CCRF-CEM leukemia; U251 CNS; K-562 leukemia; UO-31 renal.
What all share (assay): NCI anticancer screen, dose series, 48 h

SMILES strings stand for the structures.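 Following 48 hours of exposure in 96-well plates, responses at five concentrations were used to interpolate endpoints linearly. GI50 marks 50% less growth. At the TGI there is no net growth.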

In the case of `COc1ccc(C(=O)c2cc(C)c(OC)c(C)c2)cc1OC(=O)CCl`, the GI50 with SR leukemia was under 0.01 µM; in the test with MCF7 breast, under 0.01 µM; in the test with A549 NSCLC, 0.0845 µM; with SK-MEL-28 melanoma, 0.0396 µM; with SN12C renal it was under 0.01 µM; in the test on 786-0 renal it was 0.0763 µM. The GI50 in the test with CCRF-CEM leukemia, in the test with U251 CNS and with K-562 leukemia was under 0.01 µM each time. In addition, the TGI in the test on SR leukemia, with MCF7 breast, in the test with A549 NSCLC, with SK-MEL-28 melanoma, in the test on SN12C renal and with 786-0 renal was over 100 µM each time. Moreover, the TGI with CCRF-CEM leukemia, with U251 CNS, in the test with K-562 leukemia and in the test with UO-31 renal was over 100 µM each time.
As to `COc1ccc(-c2[nH]c3ccc(OC)cc3c2/C=C(\C#N)S(=O)(=O)c2ccccc2)cc1`, the GI50 was 0.305 µM in the test with SR leukemia; 0.774 µM in the test with MCF7 breast; 2.01 µM in the test on A549 NSCLC; 0.765 µM in the test on SK-MEL-28 melanoma; 2.2 µM in the test with SN12C renal; 2.03 µM in the test on 786-0 renal. The GI50 was 0.894 µM in the test with CCRF-CEM leukemia, 0.557 µM in the test with U251 CNS, 0.475 µM with K-562 leukemia and 2.69 µM in the test on UO-31 renal. Besides, the TGI in the test on SR leukemia is 2.6 µM; in the test with MCF7 breast, over 100 µM; in the test on A549 NSCLC, over 68.3 µM; in the test on SK-MEL-28 melanoma, over 67.8 µM; in the test on SN12C renal, over 100 µM; in the test with 786-0 renal it was over 100 µM. Further, the figures for the TGI in the test on CCRF-CEM leukemia, with U251 CNS and with UO-31 renal were 6.19 µM, over 100 µM and over 27.6 µM, respectively.
As for `CCCCC(CC)COC(=O)C[N+](C)(C)CCOC(c1ccccc1)c1ccccc1` (stereo not drawn), the GI50 was 2.18 µM in the test on SR leukemia; 1.99 µM in the test with MCF7 breast; 17.8 µM in the test on A549 NSCLC; 1.8 µM with SK-MEL-28 melanoma; 2.43 µM in the test with SN12C renal; 2.3 µM in the test on 786-0 renal. For the same molecule, the GI50 is 3.17 µM in the test on CCRF-CEM leukemia, 1.87 µM with U251 CNS, 3.23 µM in the test with K-562 leukemia and 12.4 µM with UO-31 renal. The TGI with SR leukemia amounted to 5.16 µM; in the test on MCF7 breast, 4.34 µM; in the test with A549 NSCLC, 38.9 µM; in the test on SK-MEL-28 melanoma, 3.31 µM; in the test with SN12C renal, 6 µM; in the test on 786-0 renal it was 5.69 µM. The TGI in the test on CCRF-CEM leukemia worked out at 11.7 µM; in the test on U251 CNS, 3.81 µM; in the test with K-562 leukemia, 11.6 µM; in the test on UO-31 renal, 27.3 µM.
In the case of `CN1CCN(CCCNc2nc3ccc(Oc4ccc(NC(=O)Nc5cc(C(F)(F)F)ccc5F)cc4)cc3[nH]2)CC1`, the GI50 in the test on SR leukemia was 6.33 µM; in the test on MCF7 breast, 4.05 µM; with A549 NSCLC, 4.31 µM; in the test on SK-MEL-28 melanoma, 4.24 µM; in the test on SN12C renal, 4.77 µM; with 786-0 renal it was 5.26 µM. The GI50 with CCRF-CEM leukemia is 4.96 µM; in the test on U251 CNS it was 3.86 µM; in the test with K-562 leukemia, 4.84 µM; with UO-31 renal it was over 25 µM. Also, the TGI with SR leukemia was over 16.8 µM; with MCF7 breast, 7.61 µM; in the test on A549 NSCLC, 8.08 µM; with SK-MEL-28 melanoma, 7.73 µM; in the test with SN12C renal it was 11.2 µM; in the test on 786-0 renal it was 11.9 µM. In addition, the TGI in the test with CCRF-CEM leukemia was 10.8 µM; with U251 CNS, 7.38 µM; with K-562 leukemia, 11.1 µM; in the test with UO-31 renal, over 25 µM.
`COc1ccc(C(=O)c2cc(OC)c(OC)c(OC)c2)cc1/C=C/C(=O)c1ccc(F)cc1`: the GI50 with SR leukemia was 2.04 µM; in the test with MCF7 breast, 2.3 µM; with A549 NSCLC it was 16.5 µM; in the test with SK-MEL-28 melanoma it was 2.48 µM; in the test with SN12C renal, 2.62 µM; in the test with 786-0 renal, 2.15 µM. In addition, the GI50 with CCRF-CEM leukemia is 2.24 µM; with U251 CNS it was 1.85 µM; in the test on K-562 leukemia, 2.34 µM; with UO-31 renal, 1.77 µM. Moreover, the TGI in the test with SR leukemia was 95.7 µM; in the test on MCF7 breast it was 11.1 µM; in the test on A549 NSCLC it was over 100 µM; in the test with SK-MEL-28 melanoma, 7.25 µM; in the test on SN12C renal, 8.18 µM; in the test on 786-0 renal, 5.57 µM. In addition, the TGI with CCRF-CEM leukemia was 9.69 µM; in the test on U251 CNS, 3.54 µM; in the test on K-562 leukemia, over 100 µM; with UO-31 renal, 3.49 µM.
For the molecule `CCOC(=O)C1CCN(S(=O)(=O)/N=C2/NC(=O)NC2=C(Cl)Cl)CC1`, the GI50 in the test with SR leukemia was 0.731 µM; in the test on MCF7 breast, 0.33 µM; in the test on A549 NSCLC, 4.82 µM; in the test on SK-MEL-28 melanoma it was 1.8 µM; in the test with SN12C renal, 1.55 µM; in the test on 786-0 renal, 0.545 µM. Also, the GI50 is 1.23 µM in the test with CCRF-CEM leukemia, 1.9 µM in the test with U251 CNS, 1.82 µM with K-562 leukemia and 1.73 µM in the test on UO-31 renal. In addition, the TGI in the test on SR leukemia was found to be 4.96 µM; with MCF7 breast, 22 µM; with A549 NSCLC, 17.7 µM; in the test on SK-MEL-28 melanoma, 3.51 µM; in the test with SN12C renal, 3.1 µM; with 786-0 renal, 6.64 µM. Also, the TGI amounted to 3.16 µM with CCRF-CEM leukemia, 3.47 µM in the test with U251 CNS, 5.99 µM with K-562 leukemia and 4.02 µM in the test with UO-31 renal.
Consider `COC(=O)Nc1nc2ccc(C3(c4ccc(F)cc4)OCCO3)cc2[nH]1`, for which the GI50 with SR leukemia is 0.122 µM; with MCF7 breast, 0.18 µM; in the test with A549 NSCLC, 0.417 µM; in the test with SK-MEL-28 melanoma it was 0.769 µM; in the test with SN12C renal, 0.584 µM; in the test on 786-0 renal, 0.687 µM. Further, the GI50 was 0.337 µM with CCRF-CEM leukemia, 0.398 µM in the test on U251 CNS, 0.112 µM in the test on K-562 leukemia and 3.39 µM with UO-31 renal. The TGI with SR leukemia, with MCF7 breast, with A549 NSCLC, in the test on SK-MEL-28 melanoma, in the test with SN12C renal and in the test with 786-0 renal was over 100 µM each time. Moreover, the TGI in the test on CCRF-CEM leukemia, with U251 CNS, in the test with K-562 leukemia and in the test with UO-31 renal was over 100 µM each time.
